# Measurements taken from ChEMBL document CHEMBL1275405, “Population pharmacokinetics of levofloxacin, gatifloxacin, and moxifloxacin in adults with pulmonary tuberculosis” (Antimicrob Agents Chemother, 2008).
# Key:
# [1] = Ratio of fAUC in tuberculosis patient at 1000 mg/day, po administered for 7 days to MIC for Mycobacterium tuberculosis; format: functional
# [2] = Clearance in tuberculosis patient at 1000 mg/day, po administered for 7 days measured after 24 hrs by HPLC; format: ADME, organism-based; settings: human, in vivo
# [3] = test system: Mycobacterium tuberculosis; format: functional; settings: 168 h
# clinical [4] = settings: human, in vivo, po, 1000 mg/day
# Description: Cmax in tuberculosis patient at 1000 mg/day, po administered for 7 days by HPLC
# [5] = Tmax in tuberculosis patient at […], po administered for 7 days by HPLC; format: ADME, organism-based; settings: human, in vivo
# clinical [6] = settings: human, in vivo, po, 400 mg/day
# Description: Tmax in tuberculosis patient at 400 mg/day, po administered for 7 days by HPLC
# [7] = test system: Mycobacterium tuberculosis; assay: microbe, parasite or virus in culture; settings: 168 h
# Description: Antimicrobial activity against Mycobacterium tuberculosis infected in patient at 400 mg/day, po administered for 7 days by HPLC
compound,measurement,setting,value
C[C@H]1COc2c(N3CCN(C)CC3)c(F)cc3c(=O)c(C(=O)O)cn1c23.C[C@H]1COc2c(N3CCN(C)CC3)c(F)cc3c(=O)c(C(=O)O)cn1c23.O [LEVOFLOXACIN],RatioAUC/MIC,[1],187.67
same,CL/F,[2],79 mL/min
same,MIC,[3],0.5 µg/mL
same,Cmax at 168 h,clinical [4],9000 ng/mL
COc1c(N2CCNC(C)C2)c(F)cc2c(=O)c(C(=O)O)cn(C3CC3)c12 (centres undefined) [GATIFLOXACIN],Tmax,[5],8 h
same,Tmax at 168 h,clinical [6],2 h
same,MIC,[7],0.2 µg/mL
COc1c(N2C[C@@H]3CCCN[C@@H]3C2)c(F)cc2c(=O)c(C(=O)O)cn(C3CC3)c12 [MOXIFLOXACIN],Tmax at 168 h,clinical [6],2 h
same,MIC,[7],0.5 µg/mL
